Legend:
Experiment in all cases: KinaseProfiler off-target kinase profiling
Assay type in all cases: biochemical
Conditions in all cases: 10 μM, ATP near Km
LOK = LOK (Homo sapiens (Human), UniProt O94804)
Outline: (§1)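 ATP was held near each kinase's Km while compound was present at 10 μM. Runs were done twice, and values are the average percent of control.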

p38beta = p38beta (Homo sapiens (Human), UniProt Q15759)
Outline: as §1

DAPK3 = DAPK3 (Homo sapiens (Human), UniProt O43293)
Outline: as §1

FAK = FAK (Homo sapiens (Human), UniProt Q05397)
Outline: as §1

GRK5 = GRK5 (Homo sapiens (Human), UniProt P34947)
Outline: as §1

CK1gamma2 = CK1gamma2 (Homo sapiens (Human), UniProt P78368)
Outline: as §1

DRAK1 = DRAK1 (Homo sapiens (Human), UniProt Q9UEE5)
Outline: as §1

KDR = KDR (Homo sapiens (Human), UniProt P35968)
Outline: as §1

AURKA = AURKA (Homo sapiens (Human), UniProt O14965)
Outline: as §1

PKCbetaII = PKCbetaII (Homo sapiens (Human), UniProt P05771)
Outline: as §1

ULK3 = ULK3 (Homo sapiens (Human), UniProt Q6PHR2)
Outline: as §1

Lyn = Lyn (Homo sapiens (Human), UniProt P07948)
Outline: as §1

MuSK = MuSK (Homo sapiens (Human), UniProt O15146)
Outline: as §1

AKT3 = AKT3 (Homo sapiens (Human), UniProt Q9Y243)
Outline: as §1

IRAK1 = IRAK1 (Homo sapiens (Human), UniProt P51617)
Outline: as §1

MKNK2 = MKNK2 (Homo sapiens (Human), UniProt Q9HBH9)
Outline: as §1

LIMK1 = LIMK1 (Homo sapiens (Human), UniProt P53667)
Outline: as §1

p38delta = p38delta (Homo sapiens (Human), UniProt O15264)
Outline: as §1

IGF-1R = IGF-1R (Homo sapiens (Human), UniProt P08069)
Outline: as §1

EphB4 = EphB4 (Homo sapiens (Human), UniProt P54760)
Outline: as §1

TLK2 = TLK2 (Homo sapiens (Human), UniProt Q86UE8)
Outline: as §1

MEK1 = MEK1 (Homo sapiens (Human), UniProt Q02750)
Outline: as §1

SGK1 = SGK1 (Homo sapiens (Human), UniProt O00141)
Outline: as §1

SIK = SIK (Homo sapiens (Human), UniProt P57059)
Outline: as §1

CDK2/cyclinA = CDK2/cyclinA (Homo sapiens (Human), UniProt P24941)
Outline: as §1

PKCepsilon = PKCepsilon (Homo sapiens (Human), UniProt Q02156)
Outline: as §1

Met = Met (Homo sapiens (Human), UniProt P08581)
Outline: as §1

WNK3 = WNK3 (Homo sapiens (Human), UniProt Q9BYP7)
Outline: as §1

PTK5 = PTK5 (Homo sapiens (Human), UniProt P42685)
Outline: as §1

Haspin = Haspin (Homo sapiens (Human), UniProt Q8TF76)
Outline: as §1

ARK5 = ARK5 (Homo sapiens (Human), UniProt O60285)
Outline: as §1

CAMK2b = CAMK2b (Homo sapiens (Human), UniProt Q13554)
Outline: as §1

TAK1 = TAK1 (Homo sapiens (Human), UniProt O43318)
Outline: as §1

MAP4K2 = MAP4K2 (Homo sapiens (Human), UniProt Q12851)
Outline: as §1

Chain of ULK3 (Q6PHR2 whole entry): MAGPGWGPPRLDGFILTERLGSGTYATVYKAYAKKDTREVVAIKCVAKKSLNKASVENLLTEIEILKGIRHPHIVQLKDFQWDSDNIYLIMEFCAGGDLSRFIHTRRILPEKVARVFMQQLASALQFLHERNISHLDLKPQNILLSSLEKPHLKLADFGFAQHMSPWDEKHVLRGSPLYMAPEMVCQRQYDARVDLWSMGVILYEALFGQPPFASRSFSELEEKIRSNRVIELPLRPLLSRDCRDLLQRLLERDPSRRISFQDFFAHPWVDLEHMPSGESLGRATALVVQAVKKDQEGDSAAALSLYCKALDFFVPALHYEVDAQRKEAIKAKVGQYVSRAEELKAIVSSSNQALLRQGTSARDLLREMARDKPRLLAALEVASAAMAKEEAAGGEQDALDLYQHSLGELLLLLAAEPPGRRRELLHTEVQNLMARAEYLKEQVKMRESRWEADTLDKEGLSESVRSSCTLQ
Chain of AKT3 (Q9Y243 whole entry): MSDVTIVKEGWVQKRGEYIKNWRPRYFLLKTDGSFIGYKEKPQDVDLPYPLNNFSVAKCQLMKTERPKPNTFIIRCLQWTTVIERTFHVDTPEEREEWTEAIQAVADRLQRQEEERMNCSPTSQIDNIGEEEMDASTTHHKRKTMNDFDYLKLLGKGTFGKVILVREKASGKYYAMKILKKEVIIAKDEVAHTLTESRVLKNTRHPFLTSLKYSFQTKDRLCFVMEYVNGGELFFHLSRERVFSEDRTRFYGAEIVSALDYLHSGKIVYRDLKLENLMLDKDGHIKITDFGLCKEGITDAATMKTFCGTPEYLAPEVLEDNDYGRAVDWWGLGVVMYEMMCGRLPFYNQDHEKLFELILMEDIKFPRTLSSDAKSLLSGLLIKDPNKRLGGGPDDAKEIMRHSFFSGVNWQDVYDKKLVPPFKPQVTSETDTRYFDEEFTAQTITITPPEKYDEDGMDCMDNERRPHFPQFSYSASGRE
Chain of p38delta (O15264 whole entry): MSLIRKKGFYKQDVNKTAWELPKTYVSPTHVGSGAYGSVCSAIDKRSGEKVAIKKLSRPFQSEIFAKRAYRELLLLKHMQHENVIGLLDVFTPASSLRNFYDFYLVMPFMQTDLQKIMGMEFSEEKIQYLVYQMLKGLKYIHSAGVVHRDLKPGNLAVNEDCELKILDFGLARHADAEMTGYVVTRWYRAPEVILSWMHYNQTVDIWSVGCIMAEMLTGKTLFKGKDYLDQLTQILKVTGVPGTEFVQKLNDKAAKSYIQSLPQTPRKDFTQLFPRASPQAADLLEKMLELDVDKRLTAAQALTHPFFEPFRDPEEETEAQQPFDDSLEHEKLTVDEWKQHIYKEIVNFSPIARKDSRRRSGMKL
Chain of SGK1 (O00141 whole entry): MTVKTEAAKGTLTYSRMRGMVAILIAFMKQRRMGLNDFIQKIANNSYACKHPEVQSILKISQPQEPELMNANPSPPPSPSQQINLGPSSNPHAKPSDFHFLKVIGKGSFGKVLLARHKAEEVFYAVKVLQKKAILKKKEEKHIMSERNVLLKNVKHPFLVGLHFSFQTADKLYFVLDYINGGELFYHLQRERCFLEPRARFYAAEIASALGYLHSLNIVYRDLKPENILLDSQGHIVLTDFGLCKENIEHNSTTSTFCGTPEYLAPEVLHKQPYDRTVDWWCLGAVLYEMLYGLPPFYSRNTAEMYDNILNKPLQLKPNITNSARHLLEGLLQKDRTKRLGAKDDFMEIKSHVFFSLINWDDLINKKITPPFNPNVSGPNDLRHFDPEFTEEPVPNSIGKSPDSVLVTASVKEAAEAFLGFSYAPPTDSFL
Chain of CAMK2b (Q13554 whole entry): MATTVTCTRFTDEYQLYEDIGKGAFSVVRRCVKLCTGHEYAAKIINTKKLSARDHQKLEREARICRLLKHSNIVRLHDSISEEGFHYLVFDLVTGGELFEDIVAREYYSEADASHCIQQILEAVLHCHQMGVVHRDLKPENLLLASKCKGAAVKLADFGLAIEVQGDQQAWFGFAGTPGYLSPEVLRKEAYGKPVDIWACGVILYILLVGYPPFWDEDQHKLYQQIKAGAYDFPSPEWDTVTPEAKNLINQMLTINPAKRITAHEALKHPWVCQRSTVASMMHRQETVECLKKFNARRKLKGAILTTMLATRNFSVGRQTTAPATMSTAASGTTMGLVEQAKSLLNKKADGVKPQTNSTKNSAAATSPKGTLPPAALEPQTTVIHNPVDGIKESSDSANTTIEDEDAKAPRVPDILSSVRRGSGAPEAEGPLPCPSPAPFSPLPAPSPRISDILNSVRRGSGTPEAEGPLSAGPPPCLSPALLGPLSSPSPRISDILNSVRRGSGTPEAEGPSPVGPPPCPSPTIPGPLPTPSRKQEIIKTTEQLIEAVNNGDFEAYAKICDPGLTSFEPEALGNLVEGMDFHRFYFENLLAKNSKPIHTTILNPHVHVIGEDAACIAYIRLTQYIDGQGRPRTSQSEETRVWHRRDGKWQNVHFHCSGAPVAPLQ
Chain of Met (P08581 25-1390): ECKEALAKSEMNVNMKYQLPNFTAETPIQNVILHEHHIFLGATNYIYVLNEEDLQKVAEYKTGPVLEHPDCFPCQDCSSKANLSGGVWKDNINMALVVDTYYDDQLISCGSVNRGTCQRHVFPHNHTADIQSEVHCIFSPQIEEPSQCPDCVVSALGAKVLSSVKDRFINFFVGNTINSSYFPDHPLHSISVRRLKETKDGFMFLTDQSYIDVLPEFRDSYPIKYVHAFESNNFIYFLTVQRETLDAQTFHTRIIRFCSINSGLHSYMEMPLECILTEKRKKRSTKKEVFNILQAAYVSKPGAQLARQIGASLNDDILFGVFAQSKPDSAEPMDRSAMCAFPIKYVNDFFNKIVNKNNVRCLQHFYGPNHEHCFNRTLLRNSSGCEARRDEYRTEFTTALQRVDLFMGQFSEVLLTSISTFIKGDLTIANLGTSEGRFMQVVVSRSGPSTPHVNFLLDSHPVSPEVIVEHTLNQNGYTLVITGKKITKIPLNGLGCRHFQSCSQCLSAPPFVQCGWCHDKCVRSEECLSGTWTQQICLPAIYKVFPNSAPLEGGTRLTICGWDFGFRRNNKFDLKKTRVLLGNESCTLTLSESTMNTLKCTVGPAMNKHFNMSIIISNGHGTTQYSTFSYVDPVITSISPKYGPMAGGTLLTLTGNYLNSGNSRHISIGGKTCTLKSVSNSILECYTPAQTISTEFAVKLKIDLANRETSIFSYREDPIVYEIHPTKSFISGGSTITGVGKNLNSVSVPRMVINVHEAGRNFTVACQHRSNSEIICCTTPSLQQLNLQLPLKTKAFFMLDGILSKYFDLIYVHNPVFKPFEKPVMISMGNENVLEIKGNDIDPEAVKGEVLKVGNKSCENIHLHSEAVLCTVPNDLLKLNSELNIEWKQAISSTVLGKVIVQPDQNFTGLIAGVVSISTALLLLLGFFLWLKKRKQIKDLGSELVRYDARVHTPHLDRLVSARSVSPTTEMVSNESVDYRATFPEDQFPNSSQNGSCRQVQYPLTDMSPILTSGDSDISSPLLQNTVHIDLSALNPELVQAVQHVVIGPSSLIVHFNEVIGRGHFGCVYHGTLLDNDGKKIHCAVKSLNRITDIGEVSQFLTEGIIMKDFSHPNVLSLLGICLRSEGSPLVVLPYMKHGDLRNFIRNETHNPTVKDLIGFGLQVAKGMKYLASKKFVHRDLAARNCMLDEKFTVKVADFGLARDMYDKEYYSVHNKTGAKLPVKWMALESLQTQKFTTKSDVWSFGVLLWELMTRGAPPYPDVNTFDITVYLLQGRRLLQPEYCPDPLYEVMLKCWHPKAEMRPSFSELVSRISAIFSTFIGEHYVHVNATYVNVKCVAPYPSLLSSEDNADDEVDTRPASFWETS
Chain of MuSK (O15146 24-869): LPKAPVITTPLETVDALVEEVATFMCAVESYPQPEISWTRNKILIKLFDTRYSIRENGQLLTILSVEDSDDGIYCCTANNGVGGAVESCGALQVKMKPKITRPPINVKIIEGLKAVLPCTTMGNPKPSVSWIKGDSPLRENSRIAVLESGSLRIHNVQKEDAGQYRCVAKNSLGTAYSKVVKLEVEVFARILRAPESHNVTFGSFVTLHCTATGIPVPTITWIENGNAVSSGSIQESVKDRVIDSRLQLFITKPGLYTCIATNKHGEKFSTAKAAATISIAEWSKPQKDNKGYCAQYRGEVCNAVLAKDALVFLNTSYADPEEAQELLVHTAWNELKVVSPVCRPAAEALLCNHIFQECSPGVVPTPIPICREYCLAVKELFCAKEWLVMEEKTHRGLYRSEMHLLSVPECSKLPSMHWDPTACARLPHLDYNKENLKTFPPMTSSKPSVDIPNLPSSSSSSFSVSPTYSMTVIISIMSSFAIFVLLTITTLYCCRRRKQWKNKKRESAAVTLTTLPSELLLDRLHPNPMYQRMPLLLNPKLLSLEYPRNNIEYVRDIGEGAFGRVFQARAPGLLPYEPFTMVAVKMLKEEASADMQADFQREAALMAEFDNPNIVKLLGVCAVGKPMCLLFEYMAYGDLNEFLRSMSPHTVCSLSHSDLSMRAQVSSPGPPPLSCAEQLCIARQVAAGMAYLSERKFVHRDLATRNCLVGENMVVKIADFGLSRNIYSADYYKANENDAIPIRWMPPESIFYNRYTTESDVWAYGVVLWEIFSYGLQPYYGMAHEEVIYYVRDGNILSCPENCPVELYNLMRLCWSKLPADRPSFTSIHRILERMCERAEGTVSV
Chain of p38beta (Q15759 whole entry): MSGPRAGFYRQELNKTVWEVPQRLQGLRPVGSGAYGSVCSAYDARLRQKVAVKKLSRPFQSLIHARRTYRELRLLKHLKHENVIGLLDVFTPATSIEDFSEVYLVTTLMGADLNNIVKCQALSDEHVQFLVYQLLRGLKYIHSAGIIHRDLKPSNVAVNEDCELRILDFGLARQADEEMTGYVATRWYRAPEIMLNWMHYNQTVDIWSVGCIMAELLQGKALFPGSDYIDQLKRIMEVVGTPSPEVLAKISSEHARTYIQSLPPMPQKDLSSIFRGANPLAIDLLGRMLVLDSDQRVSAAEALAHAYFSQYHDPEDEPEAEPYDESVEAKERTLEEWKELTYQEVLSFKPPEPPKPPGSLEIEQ

| Compound | Avg. POC (LOK) | Avg. POC (p38beta) | Avg. POC (DAPK3) | Avg. POC (FAK) | Avg. POC (GRK5) | Avg. POC (CK1gamma2) | Avg. POC (DRAK1) | Avg. POC (KDR) | Avg. POC (AURKA) | Avg. POC (PKCbetaII) | Avg. POC (ULK3) | Avg. POC (Lyn) | Avg. POC (MuSK) | Avg. POC (AKT3) | Avg. POC (IRAK1) | Avg. POC (MKNK2) | Avg. POC (LIMK1) | Avg. POC (p38delta) | Avg. POC (IGF-1R) | Avg. POC (EphB4) | other results |
| --- | --- | --- | --- | --- | --- | --- | --- | --- | --- | --- | --- | --- | --- | --- | --- | --- | --- | --- | --- | --- | --- |
| Cc1c(-c2cnn(C)c2)nn(-c2ccccc2)c1NC(=O)N[C@H]1CCCc2ccccc21 [Example 2, (S)-1-(1′,4-dimethyl-1-phenyl-1H,1′H-3,4′-bipyrazol-5-yl)-3-(1,2,3,4-tetrahydronaphthalen-1-yl)urea] | 109.5 POC | 113 POC | 125.5 POC | 116.5 POC | 106.5 POC | 142.5 POC | 108.5 POC | 123.5 POC | 126 POC | 95.5 POC | 105 POC | 115 POC | 103.5 POC | 116.5 POC | 107 POC | 106.5 POC | 105 POC | 96.5 POC | 18 POC | 118.5 POC | Avg. POC (TLK2): 100 POC; Avg. POC (MEK1): 100.5 POC; Avg. POC (SGK1): 150 POC; Avg. POC (SIK): 121.5 POC; Avg. POC (CDK2/cyclinA): 127 POC; Avg. POC (PKCepsilon): 101.5 POC; Avg. POC (Met): 148.5 POC; Avg. POC (WNK3): 109.5 POC; Avg. POC (PTK5): 122 POC; Avg. POC (Haspin): 92.5 POC; Avg. POC (ARK5): 109.5 POC; Avg. POC (CAMK2b): 106.5 POC; Avg. POC (TAK1): 106 POC; Avg. POC (MAP4K2): 110 POC |
| Cc1c(-c2cnn(C)c2)nn(-c2ccccc2)c1NC(=O)NC1CCOc2cc(F)ccc21 (centres unmarked) [Example 12, 1-(1′,4-dimethyl-1-phenyl-1H,1′H-[3,4′-bipyrazol]-5-yl)-3-(7-fluorochroman-4-yl)urea] | 116 POC | 115.5 POC | 103 POC | 104 POC | 83.5 POC | 114.5 POC | 114 POC | 119.5 POC | 111 POC | 100 POC | 89.5 POC | 104.5 POC | 98.5 POC | 94 POC | 102.5 POC | 103.5 POC | 97.5 POC | 99.5 POC | 80 POC | 121 POC | Avg. POC (TLK2): 98 POC; Avg. POC (MEK1): 106.5 POC; Avg. POC (SGK1): 129 POC; Avg. POC (SIK): 133.5 POC; Avg. POC (CDK2/cyclinA): 112 POC; Avg. POC (PKCepsilon): 97.5 POC; Avg. POC (Met): 109 POC; Avg. POC (WNK3): 112.5 POC; Avg. POC (PTK5): 100 POC; Avg. POC (Haspin): 97 POC; Avg. POC (ARK5): 99.5 POC; Avg. POC (CAMK2b): 106 POC; Avg. POC (TAK1): 97 POC; Avg. POC (MAP4K2): 107.5 POC |

Reference: US10351575B2, “Bicyclic urea, thiourea, guanidine and cyanoguanidine compounds useful for the treatment of pain” (Array BioPharma Inc., priority 2012, dated 2019)
